Legend:
Format in all cases: in vivo
[1] = system: lambsquarters (Chenopodium album); test: Test B postemergence; settings: Rate 500 g/ha, scale 0 to 100, 0 is no effect, 100 is complete control, 13 to 15 days
Summary of the method: (§1)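 Seeds were planted and sprayed preemergence with test chemical in a non-phytotoxic solvent mixture containing surfactant; postemergence plants (2 to 18 cm, 1- to 4-leaf stage) received the same formulation. Greenhouse hold 13 to 15 days, then visual rating versus untreated controls on a 0–100 scale (0 no effect, 100 complete control).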

[2] = system: Surinam grass (Brachiaria decumbens); test: Test B postemergence; settings: 13 to 15 days
Summary of the method: as §1

[3] = system: barnyardgrass (Echinochloa crus-galli); test: Test B postemergence; settings: 13 to 15 days
Summary of the method: as §1

wild oat (Avena fatua) = test: Test B postemergence; settings: Rate 500 g/ha, scale 0 to 100, 0 is no effect, 100 is complete control, 13 to 15 days
Summary of the method: as §1

[4] = system: pigweed (Amaranthus retroflexus); test: Test B postemergence; settings: Rate 500 g/ha, scale 0 to 100, 0 is no effect, 100 is complete control, 13 to 15 days
Summary of the method: as §1

[5] = system: velvetleaf (Abutilon theophrasti); test: Test B postemergence; settings: Rate 500 g/ha, scale 0 to 100, 0 is no effect, 100 is complete control, 13 to 15 days
Summary of the method: as §1

[6] = system: wheat (Triticum aestivum); test: Test B postemergence; settings: Rate 500 g/ha, scale 0 to 100, 0 is no effect, 100 is complete control, 13 to 15 days
Summary of the method: as §1

[7] = system: giant foxtail (Setaria faberii); test: Test B postemergence; settings: 13 to 15 days
Summary of the method: as §1

[8] = system: morning glory (Ipomoea hederacea); test: Test B postemergence; settings: Rate 500 g/ha, scale 0 to 100, 0 is no effect, 100 is complete control, 13 to 15 days
Summary of the method: as §1

[9] = system: cocklebur (Xanthium strumarium); test: Test B postemergence; settings: 13 to 15 days
Summary of the method: as §1

[10] = system: crabgrass (Digitaria sanguinalis); test: Test B postemergence; settings: 13 to 15 days
Summary of the method: as §1

corn (Zea mays) [11] = test: Test B postemergence; settings: 13 to 15 days
Summary of the method: as §1

[12] = system: blackgrass (Alopecurus myosuroides); test: Test B postemergence; settings: 13 to 15 days
Summary of the method: as §1

[13] = system: smallflower flatsedge (Cyperus difformis); test: Test C flooded paddy test; settings: for Flatsedge plant response rating: Flooded Paddy, scale 0 to 100, 0 no effect, 100 complete control; for Plant response rating, Flatsedge: flooded paddy test, scale 0 to 100 (0 no effect, 100 complete control)
Summary of the method: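 Visual ratings (0 = no effect, 100 = complete control) were made 12–14 days after treatment, relative to greenhouse controls. Plants in the flooded paddy test were rice, smallflower flatsedge, duck salad and barnyardgrass, treated at the 2-leaf stage.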

rice (Oryza saliva) = test: Test B preemergence
Summary of the method: as §1

[14] = system: lambsquarters (Chenopodium album); test: Test B preemergence
Summary of the method: as §1

[15] = system: Surinam grass (Brachiaria decumbens); test: Test B preemergence
Summary of the method: as §1

[16] = system: barnyardgrass (Echinochloa crus-galli); test: Test B preemergence
Summary of the method: as §1

[17] = system: pigweed (Amaranthus retroflexus); test: Test B preemergence
Summary of the method: as §1

[18] = system: velvetleaf (Abutilon theophrasti); test: Test B preemergence
Summary of the method: as §1

[19] = system: giant foxtail (Setaria faberii); test: Test B preemergence
Summary of the method: as §1

[20] = system: morning glory (Ipomoea hederacea); test: Test B preemergence
Summary of the method: as §1

[21] = system: cocklebur (Xanthium strumarium); test: Test B preemergence
Summary of the method: as §1

[22] = system: crabgrass (Digitaria sanguinalis); test: Test B preemergence
Summary of the method: as §1

corn (Zea mays) [23] = test: Test B preemergence
Summary of the method: as §1

Sunflower [24] = test: Test C preemergence; settings: Rate 250 g/ha, scale 0 to 100, 0 no effect, 100 complete control
Sunflower [25] = test: Test C preemergence; settings: Rate 500 g/ha, visual evaluation after 12 to 14 days
[26] = Rate 125 g/ha, scale 0 (no effect) to 100 (complete control)
[27] = Rate 500 g/ha, scale 0 to 100, 0 is no effect, 100 is complete control
[28] = Preemergence, Rate 500 g/ha, scale 0 to 100, 0 no effect, 100 complete control
[29] = preemergence, Rate 125 g/ha, scale of 0 to 100 where 0 is no effect and 100 is complete control, 13 to 15 days

CC(C)(C)c1ccn(C2CCN(c3cccc(SC(F)(F)F)c3)C2=O)n1 (stereo not drawn) [Compound 93]
10: Plant response rating, Velvetleaf [5] | Plant response rating, Morningglory [8]
30: Plant response rating, Cocklebur [9, 26]
60: Plant response rating, Lambsquarters [14, 29]
20: Plant response rating, Pigweed [4] | Plant response rating, Foxtail, Giant [19, 29] | Plant response rating, Crabgrass [22, 29] | Plant response rating (0 to 100), Sunflower (Sunflower [25])
80: Plant response rating, Lambsquarters [1] | Plant response rating, Pigweed [17, 28]
0: Plant response rating, Surinam grass [2, 26] | Plant response rating, Surinam grass [2, 27] | Plant response rating, Barnyardgrass [3, 26] | Plant response rating, Barnyardgrass [3, 27] | Plant response rating, Wild Oat (wild oat (Avena fatua)) | Plant response rating, Wheat [6] | Plant response rating, Foxtail, Giant [7, 26] | Plant response rating, Foxtail, Giant [7, 27] | Plant response rating, Crabgrass [10, 26] | Plant response rating, Crabgrass [10, 27] | Plant response rating, Corn (corn (Zea mays) [11]; [26]) | Plant response rating, Corn (corn (Zea mays) [11]; [27]) | Plant response rating, Blackgrass [12, 26] | Plant response rating, Blackgrass [12, 27] | Plant response rating, Flatsedge ([13]; Rate 62 g/ha) | Plant response rating, Rice (rice (Oryza saliva); [28]) | Plant response rating, Rice (rice (Oryza saliva); [29]) | Plant response rating, Surinam grass [15, 29] | Plant response rating, Barnyardgrass [16, 29] | Plant response rating, Pigweed [17, 29] | Plant response rating, Velvetleaf [18, 28] | Plant response rating, Velvetleaf [18, 29] | Plant response rating, Morningglory [20, 28] | Plant response rating, Morningglory [20, 29] | Plant response rating, Cocklebur [21, 28] | Plant response rating, Cocklebur [21, 29] | Plant response rating, Corn (corn (Zea mays) [23]; [28]) | Plant response rating, Corn (corn (Zea mays) [23]; [29]) | Plant response rating, Sunflower (Sunflower [24])
90: Plant response rating, Foxtail, Giant [19, 28]
50: Plant response rating, Cocklebur [9, 27]
70: Plant response rating, Surinam grass [15, 28]
100: Flatsedge plant response rating ([13]; Rate 250 g/ha) | Flatsedge plant response rating ([13]; Rate 500 g/ha) | Plant response rating, Flatsedge ([13]; Rate 125 g/ha) | Plant response rating, Lambsquarters [14, 28] | Plant response rating, Barnyardgrass [16, 28] | Plant response rating, Crabgrass [22, 28]

CCC(C)c1ccn(C2CCN(c3cccc(OC)c3)C2=O)n1 (stereo not drawn) [Compound 95]
60: Plant response rating, Pigweed [4] | Plant response rating, Surinam grass [15, 29] | Plant response rating, Morningglory [20, 28] | Plant response rating, Cocklebur [21, 28]
30: Plant response rating, Barnyardgrass [3, 27]
50: Plant response rating, Velvetleaf [18, 28] | Plant response rating, Corn (corn (Zea mays) [23]; [28])
20: Plant response rating, Morningglory [8] | Plant response rating, Cocklebur [9, 27] | Plant response rating, Crabgrass [10, 27] | Plant response rating, Corn (corn (Zea mays) [23]; [29])
10: Plant response rating (0 to 100), Sunflower (Sunflower [25])
0: Plant response rating, Surinam grass [2, 26] | Plant response rating, Surinam grass [2, 27] | Plant response rating, Barnyardgrass [3, 26] | Plant response rating, Wild Oat (wild oat (Avena fatua)) | Plant response rating, Velvetleaf [5] | Plant response rating, Wheat [6] | Plant response rating, Foxtail, Giant [7, 26] | Plant response rating, Foxtail, Giant [7, 27] | Plant response rating, Cocklebur [9, 26] | Plant response rating, Crabgrass [10, 26] | Plant response rating, Corn (corn (Zea mays) [11]; [26]) | Plant response rating, Corn (corn (Zea mays) [11]; [27]) | Plant response rating, Blackgrass [12, 26] | Plant response rating, Blackgrass [12, 27] | Plant response rating, Velvetleaf [18, 29] | Plant response rating, Morningglory [20, 29] | Plant response rating, Cocklebur [21, 29] | Plant response rating, Sunflower (Sunflower [24])
100: Flatsedge plant response rating ([13]; Rate 250 g/ha) | Flatsedge plant response rating ([13]; Rate 500 g/ha) | Plant response rating, Flatsedge ([13]; Rate 125 g/ha) | Plant response rating, Rice (rice (Oryza saliva); [28]) | Plant response rating, Lambsquarters [14, 28] | Plant response rating, Lambsquarters [14, 29] | Plant response rating, Barnyardgrass [16, 28] | Plant response rating, Pigweed [17, 28] | Plant response rating, Pigweed [17, 29] | Plant response rating, Foxtail, Giant [19, 28] | Plant response rating, Foxtail, Giant [19, 29] | Plant response rating, Crabgrass [22, 28] | Plant response rating, Crabgrass [22, 29]
90: Plant response rating, Lambsquarters [1] | Plant response rating, Flatsedge ([13]; Rate 62 g/ha) | Plant response rating, Rice (rice (Oryza saliva); [29]) | Plant response rating, Surinam grass [15, 28] | Plant response rating, Barnyardgrass [16, 29]

CCC(CC)c1ccn(C2CCN(c3cccc(OC)c3)C2=O)n1 (stereo not drawn) [Compound 96]
80: Plant response rating, Surinam grass [15, 28] | Plant response rating, Morningglory [20, 28]
40: Plant response rating, Foxtail, Giant [7, 27]
30: Plant response rating, Cocklebur [21, 28]
50: Plant response rating, Morningglory [8] | Plant response rating, Surinam grass [15, 29] | Plant response rating, Velvetleaf [18, 28] | Plant response rating, Sunflower (Sunflower [24]) | Plant response rating (0 to 100), Sunflower (Sunflower [25])
10: Plant response rating, Velvetleaf [5] | Plant response rating, Cocklebur [9, 26]
20: Plant response rating, Cocklebur [9, 27] | Plant response rating, Crabgrass [10, 26] | Plant response rating, Cocklebur [21, 29] | Plant response rating, Corn (corn (Zea mays) [23]; [28])
0: Plant response rating, Surinam grass [2, 26] | Plant response rating, Surinam grass [2, 27] | Plant response rating, Barnyardgrass [3, 26] | Plant response rating, Wild Oat (wild oat (Avena fatua)) | Plant response rating, Wheat [6] | Plant response rating, Foxtail, Giant [7, 26] | Plant response rating, Corn (corn (Zea mays) [11]; [26]) | Plant response rating, Corn (corn (Zea mays) [11]; [27]) | Plant response rating, Blackgrass [12, 26] | Plant response rating, Blackgrass [12, 27] | Plant response rating, Velvetleaf [18, 29] | Plant response rating, Morningglory [20, 29] | Plant response rating, Corn (corn (Zea mays) [23]; [29])
70: Plant response rating, Crabgrass [10, 27] | Plant response rating, Rice (rice (Oryza saliva); [29])
90: Plant response rating, Lambsquarters [1] | Plant response rating, Barnyardgrass [3, 27] | Plant response rating, Pigweed [4] | Plant response rating, Flatsedge ([13]; Rate 62 g/ha) | Plant response rating, Flatsedge ([13]; Rate 125 g/ha)
100: Flatsedge plant response rating ([13]; Rate 250 g/ha) | Flatsedge plant response rating ([13]; Rate 500 g/ha) | Plant response rating, Rice (rice (Oryza saliva); [28]) | Plant response rating, Lambsquarters [14, 28] | Plant response rating, Lambsquarters [14, 29] | Plant response rating, Barnyardgrass [16, 28] | Plant response rating, Barnyardgrass [16, 29] | Plant response rating, Pigweed [17, 28] | Plant response rating, Pigweed [17, 29] | Plant response rating, Foxtail, Giant [19, 28] | Plant response rating, Foxtail, Giant [19, 29] | Plant response rating, Crabgrass [22, 28] | Plant response rating, Crabgrass [22, 29]

Source: patent publication US7138361B2, “Herbicidal heterocycles” (E. I. du Pont de Nemours and Company, priority 2000, dated 2006)
